Assay results taken from patent publication US11952364B2, “TRK inhibitors useful as anticancer drugs” (TYLIGAND BIOSCIENCE (SHANGHAI) LIMITED, priority 2018, dated 2024).

Tests used:
Experiment in all cases: KINOMEscan competition binding assay
LCK = LCK (Homo sapiens (Human), UniProt P06239)
Protocol: (§1) The experiment was performed according to the standard kinase activity determination protocol by Eurofins DiscoverX Corporation (11180 Roselle St. Suite D, San Diego, CA, USA, www.discoverX.com). Specifically, the experiment was conducted using the KINOMEscan™ screening platform, which adopts an active site-directed competition binding assay to quantitatively measure the interaction between test compounds and more than hundreds of human kinases and disease-related mutants. The working principle of the screening platform and kinase assay methods are well known in the art, for example, see www.discoverX.com.

IKK-beta = IKK-beta (Homo sapiens (Human), UniProt O14920)
Sequence of IKK-beta (O14920 whole entry): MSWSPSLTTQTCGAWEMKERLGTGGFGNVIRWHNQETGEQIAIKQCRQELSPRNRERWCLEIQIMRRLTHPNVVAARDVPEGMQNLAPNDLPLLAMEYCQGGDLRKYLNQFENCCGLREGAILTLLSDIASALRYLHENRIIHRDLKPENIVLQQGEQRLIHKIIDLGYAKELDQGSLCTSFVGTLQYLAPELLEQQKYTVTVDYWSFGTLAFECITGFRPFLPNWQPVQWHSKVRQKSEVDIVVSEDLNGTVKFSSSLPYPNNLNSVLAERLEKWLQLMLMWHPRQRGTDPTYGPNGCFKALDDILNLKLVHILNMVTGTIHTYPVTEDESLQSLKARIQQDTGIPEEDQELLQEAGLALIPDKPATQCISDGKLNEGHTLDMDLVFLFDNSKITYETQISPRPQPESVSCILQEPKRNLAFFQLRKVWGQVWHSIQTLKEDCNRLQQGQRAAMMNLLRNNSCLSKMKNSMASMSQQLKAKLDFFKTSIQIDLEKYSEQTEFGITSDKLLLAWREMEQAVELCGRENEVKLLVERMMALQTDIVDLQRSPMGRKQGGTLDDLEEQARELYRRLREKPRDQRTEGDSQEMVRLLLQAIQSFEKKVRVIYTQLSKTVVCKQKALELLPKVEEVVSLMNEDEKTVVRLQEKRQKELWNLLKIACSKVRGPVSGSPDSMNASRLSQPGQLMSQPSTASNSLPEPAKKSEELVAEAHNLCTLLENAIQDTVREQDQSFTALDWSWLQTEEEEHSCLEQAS
Protocol: as §1

MYO3B = MYO3B (Homo sapiens (Human), UniProt Q8WXR4)
Sequence of MYO3B (Q8WXR4 whole entry): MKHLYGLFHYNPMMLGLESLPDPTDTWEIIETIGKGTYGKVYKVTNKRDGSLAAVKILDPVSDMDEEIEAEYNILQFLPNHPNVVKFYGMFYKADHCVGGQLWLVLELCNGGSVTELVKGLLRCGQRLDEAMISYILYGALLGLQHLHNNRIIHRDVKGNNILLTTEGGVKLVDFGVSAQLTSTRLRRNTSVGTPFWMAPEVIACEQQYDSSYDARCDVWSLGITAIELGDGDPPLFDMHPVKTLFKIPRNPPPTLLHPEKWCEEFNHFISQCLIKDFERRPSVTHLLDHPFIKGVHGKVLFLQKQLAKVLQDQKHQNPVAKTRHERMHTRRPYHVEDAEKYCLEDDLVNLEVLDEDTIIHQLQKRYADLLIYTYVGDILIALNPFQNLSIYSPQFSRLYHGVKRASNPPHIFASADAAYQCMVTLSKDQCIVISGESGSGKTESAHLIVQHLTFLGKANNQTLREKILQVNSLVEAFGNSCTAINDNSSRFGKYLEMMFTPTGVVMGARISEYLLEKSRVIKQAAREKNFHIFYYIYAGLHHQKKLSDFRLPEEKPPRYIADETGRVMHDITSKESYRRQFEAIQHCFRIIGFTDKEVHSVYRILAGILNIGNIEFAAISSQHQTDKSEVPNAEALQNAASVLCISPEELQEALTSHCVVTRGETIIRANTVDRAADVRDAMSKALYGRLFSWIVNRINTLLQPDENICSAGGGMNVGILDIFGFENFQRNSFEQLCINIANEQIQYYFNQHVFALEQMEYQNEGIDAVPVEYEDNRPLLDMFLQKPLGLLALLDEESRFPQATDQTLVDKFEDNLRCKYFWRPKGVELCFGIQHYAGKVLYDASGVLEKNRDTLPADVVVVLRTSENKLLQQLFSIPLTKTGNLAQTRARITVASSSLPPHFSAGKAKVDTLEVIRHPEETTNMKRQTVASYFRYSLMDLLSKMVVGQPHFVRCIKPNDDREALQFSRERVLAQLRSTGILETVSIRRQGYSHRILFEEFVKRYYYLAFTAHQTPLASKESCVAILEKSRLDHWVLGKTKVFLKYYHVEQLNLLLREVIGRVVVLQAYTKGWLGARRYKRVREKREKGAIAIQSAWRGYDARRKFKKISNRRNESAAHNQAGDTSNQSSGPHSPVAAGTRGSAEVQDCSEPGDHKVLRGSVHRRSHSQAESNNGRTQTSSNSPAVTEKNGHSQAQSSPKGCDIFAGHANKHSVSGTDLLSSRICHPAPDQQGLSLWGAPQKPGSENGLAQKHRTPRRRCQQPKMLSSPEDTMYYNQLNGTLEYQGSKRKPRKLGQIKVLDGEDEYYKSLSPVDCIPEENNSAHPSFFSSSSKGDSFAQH
Protocol: as §1

DDR2 = DDR2 (Homo sapiens (Human), UniProt Q16832)
Protocol: as §1

LOK = LOK (Homo sapiens (Human), UniProt O94804)
Protocol: as §1

FLT4 = FLT4 (Homo sapiens (Human), UniProt P35916)
Protocol: as §1

TIE1 = TIE1 (Homo sapiens (Human), UniProt P35590)
Protocol: as §1

NEK9 = NEK9 (Homo sapiens (Human), UniProt Q8TD19)
Protocol: as §1

AXL = AXL (Homo sapiens (Human), UniProt P30530)
Sequence of AXL (P30530 26-894): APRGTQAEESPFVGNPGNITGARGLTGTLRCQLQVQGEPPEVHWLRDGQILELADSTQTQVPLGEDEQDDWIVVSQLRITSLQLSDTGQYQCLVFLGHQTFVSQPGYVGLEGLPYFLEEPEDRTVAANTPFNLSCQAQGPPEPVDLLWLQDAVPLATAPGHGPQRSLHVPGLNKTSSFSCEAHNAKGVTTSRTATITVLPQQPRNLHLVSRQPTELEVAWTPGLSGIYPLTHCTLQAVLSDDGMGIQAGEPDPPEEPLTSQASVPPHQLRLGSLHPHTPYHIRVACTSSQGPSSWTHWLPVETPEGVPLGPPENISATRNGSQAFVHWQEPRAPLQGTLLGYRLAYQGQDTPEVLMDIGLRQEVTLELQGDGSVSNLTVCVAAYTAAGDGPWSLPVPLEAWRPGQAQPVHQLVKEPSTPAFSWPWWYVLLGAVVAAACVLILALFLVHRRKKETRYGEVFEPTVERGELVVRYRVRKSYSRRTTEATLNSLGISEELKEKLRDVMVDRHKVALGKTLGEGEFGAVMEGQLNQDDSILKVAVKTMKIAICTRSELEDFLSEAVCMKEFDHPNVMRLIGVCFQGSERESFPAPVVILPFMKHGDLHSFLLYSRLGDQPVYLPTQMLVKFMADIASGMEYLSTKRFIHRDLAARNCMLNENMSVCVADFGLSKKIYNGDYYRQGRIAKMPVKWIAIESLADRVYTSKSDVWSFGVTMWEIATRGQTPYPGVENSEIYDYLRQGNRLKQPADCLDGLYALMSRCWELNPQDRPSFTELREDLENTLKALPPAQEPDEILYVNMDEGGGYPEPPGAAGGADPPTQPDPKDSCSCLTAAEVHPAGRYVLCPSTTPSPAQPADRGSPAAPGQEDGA
Protocol: as §1

MET = MET (Homo sapiens (Human), UniProt P08581)
Protocol: as §1

PLK4 = PLK4 (Homo sapiens (Human), UniProt O00444)
Protocol: as §1

PDGFRB = PDGFRB (Homo sapiens (Human), UniProt P09619)
Protocol: as §1

HIPK4 = HIPK4 (Homo sapiens (Human), UniProt Q8NE63)
Protocol: as §1

MERTK = MERTK (Homo sapiens (Human), UniProt Q12866)
Protocol: as §1

TRKA = TRKA (Homo sapiens (Human), UniProt P04629)
Protocol: as §1

DDR1 = DDR1 (Homo sapiens (Human), UniProt Q08345)
Protocol: as §1

MET(M1250T) = MET(M1250T) (Homo sapiens (Human), UniProt P08581, M1250T)
Protocol: as §1

KIT(L576P) = KIT(L576P) (Homo sapiens (Human), UniProt P10721, L576P)
Sequence of KIT(L576P) (P10721 26-976 L576P): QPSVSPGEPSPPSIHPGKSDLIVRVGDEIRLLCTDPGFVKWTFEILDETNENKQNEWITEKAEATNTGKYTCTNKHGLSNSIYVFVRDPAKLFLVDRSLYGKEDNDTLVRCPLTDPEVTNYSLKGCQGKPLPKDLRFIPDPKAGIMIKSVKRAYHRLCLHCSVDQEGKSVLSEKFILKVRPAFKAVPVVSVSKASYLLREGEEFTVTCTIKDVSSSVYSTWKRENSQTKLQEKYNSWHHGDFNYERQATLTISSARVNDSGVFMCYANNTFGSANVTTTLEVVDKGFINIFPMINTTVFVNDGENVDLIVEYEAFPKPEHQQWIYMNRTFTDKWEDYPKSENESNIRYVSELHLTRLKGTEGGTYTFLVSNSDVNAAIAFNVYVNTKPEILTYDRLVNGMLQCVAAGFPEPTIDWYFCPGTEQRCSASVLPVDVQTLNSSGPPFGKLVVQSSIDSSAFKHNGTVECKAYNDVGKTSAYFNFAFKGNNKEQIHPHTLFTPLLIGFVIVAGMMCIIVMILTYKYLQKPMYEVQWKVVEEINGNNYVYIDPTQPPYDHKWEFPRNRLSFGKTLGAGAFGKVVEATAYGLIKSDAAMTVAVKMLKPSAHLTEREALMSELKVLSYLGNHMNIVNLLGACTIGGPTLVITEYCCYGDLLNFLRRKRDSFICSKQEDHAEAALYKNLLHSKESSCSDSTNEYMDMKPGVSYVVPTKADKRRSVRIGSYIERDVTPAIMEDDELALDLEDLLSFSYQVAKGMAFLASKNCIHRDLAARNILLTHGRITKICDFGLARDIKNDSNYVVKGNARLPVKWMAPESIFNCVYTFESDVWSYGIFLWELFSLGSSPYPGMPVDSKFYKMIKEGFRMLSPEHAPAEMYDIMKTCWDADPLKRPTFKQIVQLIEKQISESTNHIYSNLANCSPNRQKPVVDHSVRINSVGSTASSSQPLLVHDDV
Protocol: as §1

MET(Y1235D) = MET(Y1235D) (Homo sapiens (Human), UniProt P08581, Y1235D)
Protocol: as §1

MUSK = MUSK (Homo sapiens (Human), UniProt O15146)
Protocol: as §1

CDK7 = CDK7 (Homo sapiens (Human), UniProt P50613)
Sequence of CDK7 (P50613 whole entry): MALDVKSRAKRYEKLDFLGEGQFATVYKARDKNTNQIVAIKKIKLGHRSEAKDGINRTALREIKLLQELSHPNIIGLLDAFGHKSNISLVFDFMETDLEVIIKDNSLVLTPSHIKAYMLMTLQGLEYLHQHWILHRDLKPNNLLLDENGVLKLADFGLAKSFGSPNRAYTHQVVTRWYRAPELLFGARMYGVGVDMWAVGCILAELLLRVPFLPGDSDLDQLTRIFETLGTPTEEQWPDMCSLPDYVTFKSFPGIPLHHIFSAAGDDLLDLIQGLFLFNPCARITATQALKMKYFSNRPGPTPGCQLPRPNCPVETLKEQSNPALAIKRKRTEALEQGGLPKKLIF
Protocol: as §1

FLT3(N841I) = FLT3(N841I) (Homo sapiens (Human), UniProt P36888, N841I)
Protocol: as §1

RET(M918T) = RET(M918T) (Homo sapiens (Human), UniProt P07949, M918T)
Protocol: as §1

KIT(V559D) = KIT(V559D) (Homo sapiens (Human), UniProt P10721, V559D)
Sequence of KIT(V559D) (P10721 26-976 V559D): as the sequence (P10721 26-976 L576P) above, with V534D, P551L counted along it
Protocol: as §1

MKNK2 = MKNK2 (Homo sapiens (Human), UniProt Q9HBH9)
Sequence of MKNK2 (Q9HBH9 whole entry): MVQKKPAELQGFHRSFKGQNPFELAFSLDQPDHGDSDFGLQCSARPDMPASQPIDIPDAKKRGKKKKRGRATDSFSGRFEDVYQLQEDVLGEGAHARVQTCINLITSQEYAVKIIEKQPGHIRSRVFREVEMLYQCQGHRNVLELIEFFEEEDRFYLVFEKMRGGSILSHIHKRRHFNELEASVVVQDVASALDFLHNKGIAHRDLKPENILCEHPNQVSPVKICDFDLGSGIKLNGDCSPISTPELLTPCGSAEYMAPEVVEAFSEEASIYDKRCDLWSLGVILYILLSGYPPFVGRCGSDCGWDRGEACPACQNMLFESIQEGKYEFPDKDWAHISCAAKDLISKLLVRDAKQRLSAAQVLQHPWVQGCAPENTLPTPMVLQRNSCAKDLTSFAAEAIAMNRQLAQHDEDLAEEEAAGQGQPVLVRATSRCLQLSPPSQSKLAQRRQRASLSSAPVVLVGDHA
Protocol: as §1

TRKB = TRKB (Homo sapiens (Human), UniProt Q16620)
Protocol: as §1

IKK-alpha = IKK-alpha (Homo sapiens (Human), UniProt O15111)
Protocol: as §1

EPHB6 = EPHB6 (Homo sapiens (Human), UniProt O15197)
Protocol: as §1

KIT = KIT (Homo sapiens (Human), UniProt P10721)
Sequence of KIT (P10721 26-976): as the sequence (P10721 26-976 L576P) above, with P551L counted along it
Protocol: as §1

CDKL2 = CDKL2 (Homo sapiens (Human), UniProt Q92772)
Protocol: as §1

FLT3(K663Q) = FLT3(K663Q) (Homo sapiens (Human), UniProt P36888, K663Q)
Protocol: as §1

ROS1 = ROS1 (Homo sapiens (Human), UniProt P08922)
Protocol: as §1

Compound: COc1ccc(C(=O)Nc2ccc(Oc3cc4cnn(C)c4cc3-c3cn[nH]c3)c(F)c2)c(=O)n1-c1ccc(F)cc1 [Example 12, N-(3-fluoro-4-(1-methyl-6-(1H-pyrazol-4-yl)-1H-indazol-5-yloxy)phenyl)-1-(4-fluorophenyl)-6-methoxy-2-oxo-1,2-dihydropyridine-3-carboxamide]
- inhibition at 2 µM (LCK): 97%
- inhibition at 2 µM (IKK-beta): 97%
- inhibition at 2 µM (MYO3B): 100%
- inhibition at 2 µM (DDR2): 100%
- inhibition at 2 µM (LOK): 100%
- inhibition at 2 µM (FLT4): 92%
- inhibition at 2 µM (TIE1): 99%
- inhibition at 2 µM (NEK9): 95%
- inhibition at 2 µM (AXL): 100%
- inhibition at 2 µM (MET): 93%
- inhibition at 2 µM (PLK4): 90%
- inhibition at 2 µM (PDGFRB): 98%
- inhibition at 2 µM (HIPK4): 97%
- inhibition at 2 µM (MERTK): 97%
- inhibition at 2 µM (TRKA): 100%
- inhibition at 2 µM (DDR1): 100%
- inhibition at 2 µM (MET(M1250T)): 99%
- inhibition at 2 µM (KIT(L576P)): 100%
- inhibition at 2 µM (MET(Y1235D)): 99%
- inhibition at 2 µM (MUSK): 98%
- inhibition at 2 µM (CDK7): 96%
- inhibition at 2 µM (FLT3(N841I)): 100%
- inhibition at 2 µM (RET(M918T)): 95%
- inhibition at 2 µM (KIT(V559D)): 100%
- inhibition at 2 µM (MKNK2): 100%
- inhibition at 2 µM (TRKB): 94%
- inhibition at 2 µM (IKK-alpha): 97%
- inhibition at 2 µM (EPHB6): 95%
- inhibition at 2 µM (KIT): 100%
- inhibition at 2 µM (CDKL2): 100%
- inhibition at 2 µM (FLT3(K663Q)): 93%
- inhibition at 2 µM (ROS1): 97%
